Measurements reported in patent publication US6599747B1, “Soil test” (University of Lancaster, priority 1998, dated 2003).

Experiment: Extraction of soil-associated 14C-9-phenanthrene with aqueous HPCD solution
Type: physicochemical
Conditions: for Concentration Extracted into HPCD Solution: 20 h
Method: A sample was “spiked” with 10 mg kg^−1 14C-9phenanthrene. Samples of the soil (1.25 g) were then extracted for 20 hours (sufficient time for extraction of the rapidly i.e. non-kinetically restrained fraction of compounds to be exchanged—see Example 2) with increasing concentration solutions (25 ml) of HPCD in water. The amount of activity exchanged into the HPCD solution was measured as was the total activity present. The results are shown in Table 1 in which the activity units are dpm g^−1 soil (where dpm stands for disintegrations per minute).
The above extraction was repeated but using an HPCD solution having a concentration of 50 mM. However the extraction was terminated after 3, 6, 12, 18, 24 and 40 hours. The results are shown in Table 2 in which the activity units are dpm […] soil (where dpm stands for disintegration per minute).
Soil was “spiked” to concentrations of 25 and 50 mg kg^−1. The above extraction was repeated but using a HPCD solution having a concentration of 50 mM. Soil samples were aged for 1, 42 and 84 d prior to extraction. An extraction time of 20 h was used as before (Example 1 and 2 ). The biodegradability of the soil associated ^14C-9-phenanthrene was assessed using respirometry. Respirometers consisted of Erlyn,eyer flasks (250 mL), to which soil (10 g) and water (30 mL) were added. The flasks were innoculated (10^7-10^8 g^−1 soil) with a catabolocally active microbial culture. The sealed flasks were shaken and the carbon dioxide evolved from the biodegration of the phenanthrene trapped in potassium hydroxide (1 M, 1 mL.) Mineralisation was measured until it platcauted (240 h).

[1] = HPCD 0 mM, 20 h extraction, soil spiked 10 mg kg^−1
[2] = HPCD 5 mM, 20 h extraction, soil spiked 10 mg kg^−1
[3] = HPCD 10 mM, 20 h extraction, soil spiked 10 mg kg^−1
[4] = HPCD 20 mM, 20 h extraction, soil spiked 10 mg kg^−1
[5] = HPCD 40 mM, 20 h extraction, soil spiked 10 mg kg^−1
[6] = HPCD 50 mM, 20 h extraction, soil spiked 10 mg kg^−1
[7] = HPCD 60 mM, 20 h extraction, soil spiked 10 mg kg^−1

Q: Which “HPCD solution concentration giving maximum extraction” value (20 h extraction, soil spiked 10 mg kg^−1) does the source give for c1ccc2c(c1)ccc1ccccc12 [phenanthrene] here?
A: 40 mM

Q: And the “% Exchangeable with HPCD solution” value [1]?
A: 2.79%

Q: And the “Activity Exchanged into HPCD Solution” value [1]?
A: 86.96 dpm g^−1 soil

Q: What about the “% Exchangeable with HPCD solution” value [2] of the same molecule?
A: 38.06%

Q: What about the “Activity Exchanged into HPCD Solution” value [2] of the same molecule?
A: 1186.25 dpm g^−1 soil

Q: What about the “% Exchangeable with HPCD solution” value [3] of the same molecule?
A: 45.88%

Q: What about the “Activity Exchanged into HPCD Solution” value [3] of the same molecule?
A: 1429.98 dpm g^−1 soil

Q: And the “% Exchangeable with HPCD solution” value [4]?
A: 57.51%

Q: And the “Activity Exchanged into HPCD Solution” value [4]?
A: 1792.47 dpm g^−1 soil

Q: And the “% Exchangeable with HPCD solution” value [5]?
A: 71.63%

Q: And the “Activity Exchanged into HPCD Solution” value [5]?
A: 2232.56 dpm g^−1 soil

Q: And the “extraction time after which the rapidly (non-kinetically restrained) fraction was extracted” value (HPCD 50 mM)?
A: 6 h

Q: And the “% Exchangeable with HPCD solution” value [6]?
A: 64.33%

Q: And the “Activity Exchanged into HPCD Solution” value [6]?
A: 2005.03 dpm g^−1 soil

Q: And the “% Exchangeable with HPCD solution” value (HPCD 50 mM, extraction time 0 h)?
A: 0.0%

Q: What about the “% Exchangeable with HPCD solution” value (HPCD 50 mM, extraction time 3 h) of the same molecule?
A: 64.2%

Q: And the “% Exchangeable with HPCD solution” value (HPCD 50 mM, extraction time 6 h)?
A: 73.4%

Q: And the “% Exchangeable with HPCD solution” value (HPCD 50 mM, extraction time 12 h)?
A: 72.8%

Q: And the “% Exchangeable with HPCD solution” value (HPCD 50 mM, extraction time 18 h)?
A: 74.5%

Q: And the “% Exchangeable with HPCD solution” value (HPCD 50 mM, extraction time 24 h)?
A: 76.8%

Q: What about the “% Exchangeable with HPCD solution” value (HPCD 50 mM, extraction time 40 h) of the same molecule?
A: 75.6%

Q: What about the “% Exchangeable with HPCD solution” value [7] of the same molecule?
A: 69.74%

Q: What about the “Activity Exchanged into HPCD Solution” value [7] of the same molecule?
A: 2173.65 dpm g^−1 soil

Q: What about the “Concentration Extracted into HPCD Solution” value (soil spiked 25 mg/kg^−1, aged 1 d, HPCD 50 mM) of the same molecule?
A: 19.5 mg/kg^−1

Q: What about the “Concentration Extracted into HPCD Solution” value (soil spiked 25 mg/kg^−1, aged 42 d, HPCD 50 mM) of the same molecule?
A: 17.6 mg/kg^−1

Q: And the “Concentration Extracted into HPCD Solution” value (soil spiked 25 mg/kg^−1, aged 84 d, HPCD 50 mM)?
A: 15.5 mg/kg^−1

Q: What about the “Concentration Extracted into HPCD Solution” value (soil spiked 50 mg/kg^−1, aged 1 d, HPCD 50 mM) of the same molecule?
A: 29.9 mg/kg^−1

Q: What about the “Concentration Extracted into HPCD Solution” value (soil spiked 50 mg/kg^−1, aged 42 d, HPCD 50 mM) of the same molecule?
A: 15.4 mg/kg^−1

Q: And the “Concentration Extracted into HPCD Solution” value (soil spiked 50 mg/kg^−1, aged 84 d, HPCD 50 mM)?
A: 1.0 mg/kg^−1
